Test results as given in ChEMBL document CHEMBL4417633, “Inhibitory polypeptides specific to WNT inhibitors” (2017).
Where a SMILES comes first, the peptide text is derived from it.

Tests used:
[1] = target: T1, Dickkopf-related protein 1 (Homo sapiens, UniProt O94907); experiment: Inhibition of biotin-labeled human recombinant DKK1 assessed as reduction in DKK1 interaction with LRP-6/Fc incubated overnight by chemiluminescence based Alpha-screen assay
T1 sequence (O94907 whole entry): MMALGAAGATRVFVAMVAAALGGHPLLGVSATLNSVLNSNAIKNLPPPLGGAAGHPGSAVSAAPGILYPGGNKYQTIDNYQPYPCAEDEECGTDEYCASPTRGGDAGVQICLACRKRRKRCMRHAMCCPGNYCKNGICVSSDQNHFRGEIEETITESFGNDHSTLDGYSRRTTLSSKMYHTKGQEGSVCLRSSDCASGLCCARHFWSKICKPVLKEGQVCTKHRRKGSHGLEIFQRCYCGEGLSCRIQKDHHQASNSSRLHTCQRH

[2] = target: T2, Dickkopf WNT-signaling pathway inhibitor 1 (Rattus norvegicus, UniProt A6I0Z0); experiment: Inhibition of biotin-labeled rat recombinant DKK1 assessed as reduction in DKK1 interaction with LRP-6/Fc incubated overnight by chemiluminescence based Alpha-screen assay
T2 sequence (A6I0Z0 whole entry): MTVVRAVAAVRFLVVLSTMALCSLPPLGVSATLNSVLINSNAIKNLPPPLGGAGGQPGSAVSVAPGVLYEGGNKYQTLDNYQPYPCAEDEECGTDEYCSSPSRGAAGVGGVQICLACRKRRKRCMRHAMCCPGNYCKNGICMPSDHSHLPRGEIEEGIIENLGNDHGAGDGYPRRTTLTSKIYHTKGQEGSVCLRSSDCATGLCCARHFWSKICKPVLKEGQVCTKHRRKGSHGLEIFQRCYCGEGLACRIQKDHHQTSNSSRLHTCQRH

Row | IC50 [1] [nM] | IC50 [2] [nM] | SMILES
1 | ≤ 1 | ≤ 1 | CSCC[C@H](NC(=O)[C@H](Cc1ccccc1)NC(=O)[C@H](CCC(=O)O)NC(=O)[C@H](Cc1ccc(O)cc1)NC(=O)[C@H](CO)NC(=O)[C@@H]1CCCN1C(=O)[C@@H](N)CS)C(=O)N[C@@H](CS)C(=O)N[C@@H](C)C(=O)N[C@@H](CC(=O)O)C(=O)N[C@@H](CCCCN)C(=O)N[C@@H](CCSC)C(=O)N[C@@H](CS)C(=O)N[C@@H](Cc1ccccc1)C(=O)N1CCC[C@H]1C(=O)N[C@@H](CC(C)C)C(=O)N[C@@H](CC(=O)O)C(=O)N[C@@H](Cc1ccccc1)C(=O)N[C@@H](CC(C)C)C(=O)N[C@@H](CS)C(=O)N[C@@H](CC(=O)O)C(=O)NCC(=O)N[C@@H](CCC(=O)O)C(=O)N[C@@H](CC(N)=O)C(=O)N[C@@H](CC(=O)O)C(=O)N[C@@H](CS)C(=O)N[C@@H](CCC(=O)O)C(=O)N[C@@H](CC(=O)O)C(=O)NCC(=O)N[C@@H](CO)C(=O)N[C@@H](CC(=O)O)C(=O)N[C@@H](CCC(=O)O)C(=O)N[C@@H](CC(=O)O)C(=O)N[C@@H](Cc1ccc(O)cc1)C(=O)N[C@@H](CS)C(=O)N1CCC[C@H]1C(=O)N[C@@H](CO)C(=O)N[C@@H](CCCNC(=N)N)C(=O)N[C@H](C(=O)O)[C@@H](C)O (H-CPSYEFMCADKMCFPLDFLCDGENDCEDGSDEDYCPSRT-OH)
2 | ≤ 1 | ≤ 1 | CSCC[C@H](NC(=O)[C@H](Cc1ccccc1)NC(=O)[C@H](CCC(=O)O)NC(=O)[C@H](Cc1ccc(O)cc1)NC(=O)[C@H](CO)NC(=O)[C@@H]1CCCN1C(=O)[C@@H](N)CS)C(=O)N[C@@H](CS)C(=O)N[C@@H](C)C(=O)N[C@@H](CC(=O)O)C(=O)N[C@@H](CCCCN)C(=O)N[C@@H](CCSC)C(=O)N[C@@H](CS)C(=O)N[C@@H](Cc1ccccc1)C(=O)N1CCC[C@H]1C(=O)N[C@@H](CC(C)C)C(=O)N[C@@H](CO)C(=O)N[C@@H](Cc1ccccc1)C(=O)N[C@@H](CC(C)C)C(=O)N[C@@H](CS)C(=O)N[C@@H](CC(=O)O)C(=O)NCC(=O)N[C@@H](CCC(=O)O)C(=O)N[C@@H](CC(N)=O)C(=O)N[C@@H](CC(=O)O)C(=O)N[C@@H](CS)C(=O)N[C@@H](CCC(=O)O)C(=O)N[C@@H](CC(=O)O)C(=O)NCC(=O)N[C@@H](CO)C(=O)N[C@@H](CC(=O)O)C(=O)N[C@@H](CCC(=O)O)C(=O)N[C@@H](CC(=O)O)C(=O)N[C@@H](Cc1ccc(O)cc1)C(=O)N[C@@H](CS)C(=O)N1CCC[C@H]1C(=O)N[C@@H](CO)C(=O)N[C@@H](CCCNC(=N)N)C(=O)N[C@H](C(=O)O)[C@@H](C)O (H-CPSYEFMCADKMCFPLSFLCDGENDCEDGSDEDYCPSRT-OH)
3 | ≤ 1 | ≤ 1 | CSCC[C@H](NC(=O)[C@@H]1CCCN1C(=O)[C@H](Cc1ccc(O)cc1)NC(=O)[C@H](CS)NC(=O)[C@H](Cc1cnc[nH]1)NC(=O)[C@H](CC(N)=O)NC(=O)[C@H](CCCNC(=N)N)NC(=O)[C@H](Cc1cnc[nH]1)NC(=O)[C@H](CCCNC(=N)N)NC(=O)[C@H](CS)NC(=O)[C@H](CCCCN)NC(=O)[C@H](Cc1ccccc1)NC(=O)[C@H](Cc1ccc(O)cc1)NC(=O)[C@H](CO)NC(=O)[C@@H](NC(=O)[C@@H]1CCCN1C(=O)[C@@H](N)CS)C(C)C)C(=O)N[C@@H](CCC(=O)O)C(=O)N[C@@H](Cc1c[nH]c2ccccc12)C(=O)N[C@@H](CCCNC(=N)N)C(=O)N[C@@H](CS)C(=O)N[C@@H](CC(=O)O)C(=O)NCC(=O)N[C@@H](Cc1ccccc1)C(=O)N1CCC[C@H]1C(=O)N[C@@H](CC(=O)O)C(=O)N[C@@H](CS)C(=O)N[C@@H](CC(=O)O)C(=O)N[C@@H](CC(=O)O)C(=O)NCC(=O)N[C@@H](CO)C(=O)N[C@@H](CC(=O)O)C(=O)N[C@@H](CCC(=O)O)C(=O)N[C@@H](CCCNC(=N)N)C(=O)NCC(=O)N[C@@H](CS)C(=O)N1CCC[C@H]1C(=O)N[C@@H](Cc1ccc(O)cc1)C(=O)N[C@@H](CCCNC(=N)N)C(=O)N[C@H](C(=O)O)[C@@H](C)O (H-CPVSYFKCRHRNHCYPMEWRCDGFPDCDDGSDERGCPYRT-OH)
